Assay results from publication PMC8042910, “Adiponectin-mimetic novel nonapeptide rescues aberrant neuronal metabolic-associated memory deficits in Alzheimer’s disease” (Molecular Neurodegeneration, 2021).
Residues, ends and D or L forms follow the SMILES beside them.

Key:
LTP = test: Electrophysiology, LTP in hippocampal CA1 slices; type: in vivo, mouse
[1] = Stability and half-life of Os-pep in mouse plasma; type: in vitro ADME; details: 37 °C, LC-MS/MS
Procedure: The stability of Os-pep in mouse plasma was evaluated. An aqueous stock solution of Os-pep was added to each mouse plasma sample (n= 3) at a final concentration of 1 μg/mL. Tubes were placed in a Thermomixer (Eppendorf, Germany) and maintained at 37 °C with rotation at 300 rpm. These samples were incubated for up to 2 h. The amount of peptide remaining after the incubation was immediately determined by liquid chromatography-tandem mass spectrometry (LC-MS/MS). At different time intervals, an aliquot (100 μL) of ice-cold acetonitrile containing 0.1 μg/mL gabapentin (internal standard) was added to a 50 μL aliquot of the sample. Deproteinized samples were analyzed after vortex-mixing and centrifugation.

AdipoR1/p-AMPK signaling = AdipoR1/p-AMPK signaling in in vitro AD models (immunoblot, ELISA, AMPK assay); type: cell-based, human; details: 10 μM, 12 h
Procedure: Human neuroblastoma SH-SY5Y cells were seeded (in 6-well culture plates for immunoblotting and in chamber slides for immunofluorescence) in DMEM (Dulbecco’s modified Eagle medium) containing 10% fetal bovine serum (FBS) and 1% antibiotics (penicillin-streptomycin) and incubated at 37 °C in humidified air containing 5% CO2. Once the cells reached 70–80% confluence, the cells were transfected using the pCAX vector containing the APPswe/ind gene using Lipofectamine 3000 (Life Technologies) according to the provider’s protocols. […]
SH-SY5Y (2×10^4/ml) cells used for ELISA and AMPK assays were cultured in 35-mm dishes in the presence of culture medium of DMEM containing FBS (10%) and antibiotics (1%) at 37°C in humidified air containing 5% CO2 to 70-75% confluences. […] Seventy-two hours after transfections, cells were treated with Os-pep (10 µM) for 12 h and cell lysates were collected and analyzed using ELISAs and immunoassays, as appropriate.
The AdipoR1 expressions were measured in the brain homogenates from APP/PS1 and Adipo-^/- mice and in lysates from APPswe/ind-overexpressed SH-SY5Y cells transfected with the AdipoR1 siRNA and treated Os-pep (10 µM) in vitro using the mouse and human AdipoR1 ELISA kits, accordingly to the provider’s instructions (MyBioSource). […]

[2] = test system: p-IRS-1 and p-PI3K/Akt/GSK3β (Ser 9) pathways; test: Insulin resistance and downstream insulin signaling in APPswe/ind-overexpressing SH-SY5Y cells, immunoblot; type: cell-based, human; details: Os-pep 10 μM
Procedure: Human neuroblastoma SH-SY5Y cells were seeded (in 6-well culture plates for immunoblotting and in chamber slides for immunofluorescence) in DMEM (Dulbecco’s modified Eagle medium) containing 10% fetal bovine serum (FBS) and 1% antibiotics (penicillin-streptomycin) and incubated at 37 °C in humidified air containing 5% CO2. Once the cells reached 70–80% confluence, the cells were transfected using the pCAX vector containing the APPswe/ind gene using Lipofectamine 3000 (Life Technologies) according to the provider’s protocols. AdipoR1 siRNA (h) (SC-60123) and AMPK siRNA (h) (SC-45312) (Santa Cruz Biotechnology, Inc.) were used at a concentration of 10 μM per transfection and expressed for 72 h according to the manufacturer’s protocol (Santa Cruz Biotechnology, Inc.). A negative siRNA (Ambion, Thermo Fisher Scientific) was used as a control. Seventy-two hours after the transfections, the cells were exposed to Os-pep (10 μM) for 12 h and then subjected to immunoblotting and immunofluorescence analyses.
Human neuroblastoma SH-SY5Y cells were treated with 1 µM of insulin for 48 h to produce intrinsic insulin-resistant human neuroblastoma (SH-SY5YIR) cells. After 48 h, SH-SY5YIR cells were overexpressed with human APPswe/ind and subjected with AdipoR1 siRNA which further exposed to 10 nM insulin, Os-pep (10 µM) or compound C (10 µM) for 12 h, and then cell lysates were collected and proceeded accordingly for immunoblotting and ELISA.

mice = test: Safety of chronic optimized dosage regimen in mice; type: in vivo, mouse; details: 5 μg/g, i.p.
Procedure: Os-pep was dissolved in double-deionized distilled water and then prepared in normal saline to obtain the final administered concentration. The AβO, APP/PS1, Adipo^−/− and WT mice were injected i.p. with Os-pep at a dosage of 5 μg/g on alternating days for 45 days. WT, Veh-injected transgenic-APP/PS1 and Adipo^−/− mice were injected with the same volume of double-deionized water and normal saline. The WT control and sham mice as well as the Veh-injected AβO, APP/PS1, Adipo^−/− and HFD mice received the same volume of double-deionized distilled water or normal saline.
We monitored and weighed the mice three times per week to examine the effect of Os-pep dosage regimen (5 µg/g, i.p., on alternating days for 45 days) on the animals’ body weights. At the completion of the treatment, we calculated the average change in the body weight of the mice. At the completion of the treatments and behavioral experiments, blood samples were collected by cardiac puncture of the right atrium. […]

C[C@@H](O)[C@H](NC(=O)[C@@H]1CCCN1C(=O)CNC(=O)[C@H](CS)NC(=O)[C@@H]1CCCN1C(=O)CNC(=O)[C@H](CCC(N)=O)NC(=O)[C@@H](NC(=O)[C@@H](N)CS)[C@@H](C)O)C(=O)O [Os-pep] (H-CTQGPCGPT-OH; N-terminus and C-terminus assumed)
LTP (LTP; APP/PS1 and Adipo−/− mice, 5 μg/g, i.p., alternating days for 45 days, n = 5–6/group): improved LTP | potentiating effect on LTP with AdipoR1 silencing (LTP; AβO mice with shRNA-mediated silencing of AdipoR1 gene): significantly attenuated | suppression of LTP, scramble shRNA (LTP; scramble shRNA-treated AβO mice, 5 μg/g, i.p., alternating days for 45 days): almost completely rescued to a level comparable to that of normal controls | half-life (t1/2) ([1]; 1 μg/mL, incubated up to 2 h, n = 3, first-order kinetics): approximately 2 h | remaining at 2 h, 1 μg/mL ([1]; 300 rpm, after 2 h, n = 3, 0 min set to 100%, read-out: initial concentration remained): 53% | half-life at 1 μg/mL ([1]; triplicate samples, read-out: Half-life (printed in Fig. 8c) (converted)): 2.03 h | AdipoR1/AMPK signaling with AdipoR1 knockdown (AdipoR1/p-AMPK signaling; APPswe/ind SH-SY5Y with AdipoR1 siRNA, ELISA and AMPK assay): did not promote the stimulation of AdipoR1/AMPK signaling | neuronal AdipoR1/p-AMPK signaling (AdipoR1/p-AMPK signaling; AβO-treated and human APPswe/ind-overexpressing SH-SY5Y cells): significantly increased neuronal AdipoR1/p-AMPK signaling | p-IRS-1 Tyr 632 and p-PI3K/Akt/GSK3β (Ser 9) in insulin-resistant cells ([2]; APPswe/ind SH-SY5YIR (insulin 1 μM), 12 h): significantly activated | p-IRS-1 Ser636/312 with AdipoR1 knockdown ([2]; APPswe/ind-overexpressing SH-SY5Y, AdipoR1 siRNA): did not downregulate | p-IRS-1 Tyr 632 and p-PI3K/Akt/GSK3β (Ser 9) with AMPK knockdown ([2]; APPswe/ind-transfected SH-SY5Y, AMPK siRNA): did not upregulate | liver or kidney dysfunction (serum biochemical parameters) (mice; alternating days for 45 days, APP/PS1, HFD and Adipo−/− mice): did not induce liver or kidney dysfunction | undesirable effects of chronic Os-pep treatment alone (mice; on alternating days for 45 days, Os-pep alone): did not induce any undesirable effects
